Experimental data reported in PMC6812009, “Covalent Aurora A regulation by the metabolic integrator coenzyme A” (Redox Biology, 2019).

Tests used:
Experiment in all cases: Kinase profiling screen (radioactive filter-binding assay)
Assay type in all cases: biochemical
MELK = MELK (Homo sapiens, UniProt Q14680); conditions: 100 μM compound, 50 μM ATP; read-out: Kinase activity, % of activity in the absence of inhibitor
Outline: (§1)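 CoA, dpCoA and ADP were each tested in vitro, in duplicate, at 100 μM final concentration as part of a 117-kinase panel. Recombinant kinases were used with model substrates and optimal ATP concentrations.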

MKK1 = MKK1 (Homo sapiens, UniProt Q02750); conditions: 100 μM compound, 5 μM ATP; read-out: Kinase activity, % of activity in the absence of inhibitor
Outline: as §1

PKCζ = molecular target: T1, PKCζ (Homo sapiens, UniProt Q05513); conditions: 100 μM compound, 5 μM ATP; read-out: Kinase activity, % of activity in the absence of inhibitor
T1 sequence (Q05513 1-592): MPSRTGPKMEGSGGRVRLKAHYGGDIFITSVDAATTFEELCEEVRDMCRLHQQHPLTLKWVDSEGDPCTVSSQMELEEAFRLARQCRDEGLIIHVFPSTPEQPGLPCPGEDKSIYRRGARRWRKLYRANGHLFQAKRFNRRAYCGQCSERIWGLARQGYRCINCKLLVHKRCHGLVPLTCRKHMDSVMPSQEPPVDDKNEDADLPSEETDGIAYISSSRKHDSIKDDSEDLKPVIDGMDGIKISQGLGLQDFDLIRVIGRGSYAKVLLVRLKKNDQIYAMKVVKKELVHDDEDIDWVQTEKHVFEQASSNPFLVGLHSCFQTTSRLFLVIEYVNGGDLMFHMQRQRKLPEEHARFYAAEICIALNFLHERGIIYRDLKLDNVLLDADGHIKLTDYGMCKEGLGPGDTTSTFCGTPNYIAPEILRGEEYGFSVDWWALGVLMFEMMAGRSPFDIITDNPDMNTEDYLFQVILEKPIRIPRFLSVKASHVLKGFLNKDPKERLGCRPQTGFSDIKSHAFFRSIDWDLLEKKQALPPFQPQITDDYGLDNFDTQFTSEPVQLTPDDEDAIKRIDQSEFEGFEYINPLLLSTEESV
Outline: as §1

TAO1 = molecular target: T2, TAO1 (Homo sapiens, UniProt Q7L7X3); conditions: 100 μM compound, 20 μM ATP; read-out: Kinase activity, % of activity in the absence of inhibitor
T2 sequence (Q7L7X3 1-1001): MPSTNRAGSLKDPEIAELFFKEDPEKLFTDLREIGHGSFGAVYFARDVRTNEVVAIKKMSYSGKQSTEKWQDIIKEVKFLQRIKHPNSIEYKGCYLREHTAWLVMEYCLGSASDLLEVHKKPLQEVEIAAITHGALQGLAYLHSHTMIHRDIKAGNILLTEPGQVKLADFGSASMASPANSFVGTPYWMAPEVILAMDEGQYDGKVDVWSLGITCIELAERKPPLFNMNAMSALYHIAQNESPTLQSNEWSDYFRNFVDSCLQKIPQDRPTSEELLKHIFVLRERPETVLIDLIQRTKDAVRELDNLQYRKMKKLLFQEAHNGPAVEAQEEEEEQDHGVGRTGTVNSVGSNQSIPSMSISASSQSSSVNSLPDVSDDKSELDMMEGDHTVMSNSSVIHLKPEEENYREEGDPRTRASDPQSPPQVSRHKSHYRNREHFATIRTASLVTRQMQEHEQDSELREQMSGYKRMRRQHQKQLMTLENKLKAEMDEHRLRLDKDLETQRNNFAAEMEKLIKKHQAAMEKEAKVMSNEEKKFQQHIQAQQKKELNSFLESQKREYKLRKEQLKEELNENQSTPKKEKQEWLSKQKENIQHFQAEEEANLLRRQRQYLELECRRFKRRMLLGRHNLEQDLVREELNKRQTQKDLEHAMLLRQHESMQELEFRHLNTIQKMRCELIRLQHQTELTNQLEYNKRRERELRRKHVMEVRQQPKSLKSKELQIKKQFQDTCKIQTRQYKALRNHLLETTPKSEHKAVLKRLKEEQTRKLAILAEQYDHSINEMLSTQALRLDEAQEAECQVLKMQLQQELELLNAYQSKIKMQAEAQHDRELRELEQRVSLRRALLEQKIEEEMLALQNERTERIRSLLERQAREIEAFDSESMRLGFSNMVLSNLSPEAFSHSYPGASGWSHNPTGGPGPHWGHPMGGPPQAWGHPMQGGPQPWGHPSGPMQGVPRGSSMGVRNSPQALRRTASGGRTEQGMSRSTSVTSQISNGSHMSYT
Outline: as §1

PAK2 = PAK2 (Homo sapiens, UniProt Q13177); conditions: 100 μM compound, 20 μM ATP; read-out: Kinase activity, % of activity in the absence of inhibitor
Outline: as §1

NEK6 = NEK6 (Homo sapiens, UniProt Q9HC98); conditions: 100 μM compound, 50 μM ATP; read-out: Kinase activity, % of activity in the absence of inhibitor
Outline: as §1

MNK2 = MNK2 (Homo sapiens, UniProt Q9HBH9); conditions: 100 μM compound, 50 μM ATP; read-out: Kinase activity, % of activity in the absence of inhibitor
Outline: as §1

DYRK3 = molecular target: T3, DYRK3 (Homo sapiens, UniProt O43781); conditions: 100 μM compound, 5 μM ATP; read-out: Kinase activity, % of activity in the absence of inhibitor
T3 sequence (O43781 1-588): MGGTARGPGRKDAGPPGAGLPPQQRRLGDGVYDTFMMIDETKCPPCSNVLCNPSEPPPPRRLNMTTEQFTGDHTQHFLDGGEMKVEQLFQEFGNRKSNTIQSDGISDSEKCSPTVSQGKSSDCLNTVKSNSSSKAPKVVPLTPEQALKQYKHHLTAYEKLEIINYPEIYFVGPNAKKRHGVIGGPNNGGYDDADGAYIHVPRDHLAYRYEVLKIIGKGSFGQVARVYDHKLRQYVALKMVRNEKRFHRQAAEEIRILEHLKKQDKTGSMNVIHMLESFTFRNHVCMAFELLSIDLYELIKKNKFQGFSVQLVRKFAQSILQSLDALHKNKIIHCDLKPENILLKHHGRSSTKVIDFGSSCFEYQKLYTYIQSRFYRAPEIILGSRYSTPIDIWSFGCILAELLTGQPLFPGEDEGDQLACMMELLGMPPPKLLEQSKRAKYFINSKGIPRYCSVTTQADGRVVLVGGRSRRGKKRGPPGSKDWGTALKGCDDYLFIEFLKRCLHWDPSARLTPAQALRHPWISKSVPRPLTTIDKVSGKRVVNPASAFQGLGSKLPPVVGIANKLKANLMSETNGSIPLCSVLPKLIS
Outline: as §1

MAPKAP-K2 = MAPKAP-K2 (Homo sapiens, UniProt P49137); conditions: 100 μM compound, 20 μM ATP; read-out: Kinase activity, % of activity in the absence of inhibitor
Outline: as §1

Sequence of NEK6 (Q9HC98 whole entry): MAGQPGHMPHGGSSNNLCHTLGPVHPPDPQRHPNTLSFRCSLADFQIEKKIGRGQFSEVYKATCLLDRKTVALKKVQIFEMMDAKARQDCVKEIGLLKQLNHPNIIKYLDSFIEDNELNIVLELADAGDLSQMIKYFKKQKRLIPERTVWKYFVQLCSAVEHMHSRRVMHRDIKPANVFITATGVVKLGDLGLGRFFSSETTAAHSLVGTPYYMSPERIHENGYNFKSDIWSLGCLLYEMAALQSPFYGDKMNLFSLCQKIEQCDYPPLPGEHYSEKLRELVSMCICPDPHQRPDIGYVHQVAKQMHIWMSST
Sequence of PAK2 (Q13177 whole entry): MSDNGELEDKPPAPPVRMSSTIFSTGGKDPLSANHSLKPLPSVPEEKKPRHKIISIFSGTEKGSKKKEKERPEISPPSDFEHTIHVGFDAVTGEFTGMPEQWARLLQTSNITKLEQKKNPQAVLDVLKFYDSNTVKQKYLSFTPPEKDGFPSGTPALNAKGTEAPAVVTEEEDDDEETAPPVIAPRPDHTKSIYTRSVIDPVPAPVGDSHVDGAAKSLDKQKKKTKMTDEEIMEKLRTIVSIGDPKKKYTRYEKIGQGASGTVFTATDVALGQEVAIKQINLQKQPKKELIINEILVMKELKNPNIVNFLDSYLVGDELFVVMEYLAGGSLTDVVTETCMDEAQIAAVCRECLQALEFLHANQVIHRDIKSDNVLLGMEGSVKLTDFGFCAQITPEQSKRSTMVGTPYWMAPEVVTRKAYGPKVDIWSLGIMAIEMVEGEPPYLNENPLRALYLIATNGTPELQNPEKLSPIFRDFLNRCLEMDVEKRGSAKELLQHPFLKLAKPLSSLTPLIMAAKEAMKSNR
Sequence of MKK1 (Q02750 whole entry): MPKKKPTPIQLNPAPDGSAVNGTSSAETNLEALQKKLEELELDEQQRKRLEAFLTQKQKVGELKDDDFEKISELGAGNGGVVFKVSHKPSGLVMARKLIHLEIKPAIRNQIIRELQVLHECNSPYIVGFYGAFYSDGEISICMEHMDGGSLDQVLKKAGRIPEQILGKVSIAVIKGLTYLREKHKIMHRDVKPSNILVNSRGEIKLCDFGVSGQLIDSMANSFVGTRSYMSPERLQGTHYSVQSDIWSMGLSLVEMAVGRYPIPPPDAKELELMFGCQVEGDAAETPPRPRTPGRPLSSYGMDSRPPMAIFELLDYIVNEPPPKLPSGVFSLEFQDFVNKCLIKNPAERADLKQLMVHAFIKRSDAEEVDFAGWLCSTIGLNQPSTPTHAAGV
Sequence of MAPKAP-K2 (P49137 whole entry): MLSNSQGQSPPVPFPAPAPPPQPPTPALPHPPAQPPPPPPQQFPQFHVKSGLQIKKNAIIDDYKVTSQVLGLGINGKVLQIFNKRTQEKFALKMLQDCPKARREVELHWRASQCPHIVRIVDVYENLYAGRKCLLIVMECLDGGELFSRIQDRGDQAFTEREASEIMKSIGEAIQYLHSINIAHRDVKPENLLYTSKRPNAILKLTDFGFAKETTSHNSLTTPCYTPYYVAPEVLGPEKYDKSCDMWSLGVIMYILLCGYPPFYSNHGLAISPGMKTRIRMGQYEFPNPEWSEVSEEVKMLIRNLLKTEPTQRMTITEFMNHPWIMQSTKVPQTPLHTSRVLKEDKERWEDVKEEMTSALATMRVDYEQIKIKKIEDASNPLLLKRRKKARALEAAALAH
Sequence of MNK2 (Q9HBH9 whole entry): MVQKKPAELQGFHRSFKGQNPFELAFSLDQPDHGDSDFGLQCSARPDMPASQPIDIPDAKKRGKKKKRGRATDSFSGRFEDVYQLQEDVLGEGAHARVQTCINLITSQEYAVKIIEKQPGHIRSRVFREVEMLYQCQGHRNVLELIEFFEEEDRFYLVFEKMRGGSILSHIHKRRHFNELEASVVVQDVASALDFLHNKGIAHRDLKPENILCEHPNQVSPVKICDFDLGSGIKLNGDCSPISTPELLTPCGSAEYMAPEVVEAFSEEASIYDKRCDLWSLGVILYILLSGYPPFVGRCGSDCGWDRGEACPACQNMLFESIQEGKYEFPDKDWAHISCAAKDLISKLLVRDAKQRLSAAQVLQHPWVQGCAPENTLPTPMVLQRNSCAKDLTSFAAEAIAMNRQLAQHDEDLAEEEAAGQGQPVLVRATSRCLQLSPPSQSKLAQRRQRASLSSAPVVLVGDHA
Sequence of MELK (Q14680 whole entry): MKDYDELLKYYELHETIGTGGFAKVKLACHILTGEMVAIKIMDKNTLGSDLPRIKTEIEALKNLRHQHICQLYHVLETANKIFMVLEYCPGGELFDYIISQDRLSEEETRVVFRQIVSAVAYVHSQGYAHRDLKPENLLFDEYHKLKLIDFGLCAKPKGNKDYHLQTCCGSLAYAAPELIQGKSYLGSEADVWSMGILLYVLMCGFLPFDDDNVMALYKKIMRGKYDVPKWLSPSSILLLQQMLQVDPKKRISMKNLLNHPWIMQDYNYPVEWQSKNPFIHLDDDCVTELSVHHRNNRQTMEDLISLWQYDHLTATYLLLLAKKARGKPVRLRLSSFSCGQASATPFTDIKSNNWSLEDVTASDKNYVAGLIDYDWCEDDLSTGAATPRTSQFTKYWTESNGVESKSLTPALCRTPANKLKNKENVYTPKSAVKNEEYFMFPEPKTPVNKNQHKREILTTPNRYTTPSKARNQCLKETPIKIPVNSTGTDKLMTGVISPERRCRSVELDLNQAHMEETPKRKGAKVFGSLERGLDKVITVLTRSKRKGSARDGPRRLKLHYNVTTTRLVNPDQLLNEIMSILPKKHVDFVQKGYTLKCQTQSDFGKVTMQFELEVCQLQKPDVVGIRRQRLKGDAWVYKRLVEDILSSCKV

## CC(C)(COP(=O)(O)OP(=O)(O)OC[C@H]1O[C@@H](n2cnc3c(N)ncnc32)[C@H](O)[C@@H]1OP(=O)(O)O)[C@@H](O)C(=O)NCCC(=O)NCCS [CoA, Coenzyme A]
MELK
  activity at 100 µM: 76.3%
MKK1
  activity at 100 µM: 107%
PKCζ
  activity at 100 µM: 99.3%
TAO1
  activity at 100 µM: 113%
PAK2
  activity at 100 µM: 88.8%
NEK6
  activity at 100 µM: 118%
MNK2
  activity at 100 µM: 138%
DYRK3
  activity at 100 µM: 95.1%
MAPKAP-K2
  activity at 100 µM: 93.1%

## Nc1ncnc2c1ncn2C1OC(COP(=O)(O)OP(=O)(O)O)C(O)C1O (stereo not drawn) [ADP]
MELK
  activity at 100 µM: 63.5%
MKK1
  activity at 100 µM: 16.4%
PKCζ
  activity at 100 µM: 37.7%
TAO1
  activity at 100 µM: 34%
PAK2
  activity at 100 µM: 90.3%
NEK6
  activity at 100 µM: 26.6%
MNK2
  activity at 100 µM: 41.2%
DYRK3
  activity at 100 µM: 16.2%
MAPKAP-K2
  activity at 100 µM: 53%

## CC(C)(COP(=O)(O)OP(=O)(O)OCC1OC(n2cnc3c(N)ncnc32)C(O)C1O)C(O)C(=O)NCCC(=O)NCCS (stereo not drawn) [dpCoA, dephospho-CoA]
MELK
  activity at 100 µM: 104%
MKK1
  activity at 100 µM: 52.3%
PKCζ
  activity at 100 µM: 89.9%
TAO1
  activity at 100 µM: 98.3%
PAK2
  activity at 100 µM: 112%
NEK6
  activity at 100 µM: 69.6%
MNK2
  activity at 100 µM: 87.1%
DYRK3
  activity at 100 µM: 91.2%
MAPKAP-K2
  activity at 100 µM: 81.7%
